Like-named read-outs stand apart in the source and are kept apart here.

Assay [1] addresses RIPK1 (Homo sapiens (Human), UniProt Q13546). Nature of the assay: ADP-Glo kinase assay (RIPK1 activity, conversion of ATP to ADP). The assay is classed as biochemical. To be noted: 5 nM RIPK1, 50 μM ATP, 6 h reaction; read-out: RIPK1 Enzyme Avg IC50. The gist of the method: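 ADP-Glo luminescence of ATP-to-ADP conversion by 5 nM RIPK1 with 50 μM ATP (final), 6 h reaction after 10 min compound preincubation at rt. Buffer was 50 mM HEPES pH 7.5, 30 mM MgCl2, 0.05% BSA, 0.02% CHAPS. IC50 from four-parameter logistic fit.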
A general note: ADP-Glo turns the ADP formed in a reaction into a luminescent signal.

Assay [2] deals with human monocytic cell line U937. The experiment in a line: Human U937 cellular necroptosis assay (TNFalpha + z-VAD-FMK, Cell Titer-Glo viability). In kind it is cell-based. To be noted: U937 cells, 25 ng/mL human TNFalpha + 25 μM z-VAD-FMK, read-out: hU937 Avg IC50. The procedure, abridged: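 Cells resuspended in phenol red-free RPMI with 10% FBS, stimulated with 25 ng/mL human TNFalpha plus 25 μM z-VAD-FMK, then given serially diluted compound for 22 h at 37° C, 5% CO2. Viability by Cell Titer-Glo 2.0 luminescence; IC50 from four-parameter logistic fit, averaged across runs.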
A general note: Cellular ATP, detected with luciferase, serves as a proxy for viable cell number.

RIPK1, sequence (Q13546 1-327): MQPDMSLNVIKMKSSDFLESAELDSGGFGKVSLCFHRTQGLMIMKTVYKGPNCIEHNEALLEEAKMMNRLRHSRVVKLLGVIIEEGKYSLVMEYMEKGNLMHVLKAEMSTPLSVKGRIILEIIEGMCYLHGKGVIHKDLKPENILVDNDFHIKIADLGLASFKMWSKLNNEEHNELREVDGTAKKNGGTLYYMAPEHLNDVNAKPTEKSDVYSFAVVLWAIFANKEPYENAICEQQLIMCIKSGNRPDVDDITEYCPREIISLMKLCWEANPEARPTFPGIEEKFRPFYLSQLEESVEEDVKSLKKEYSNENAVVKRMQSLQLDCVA

As to `O=C(N1CC(F)CC1c1cccc(F)c1)C12CC(Cn3ncc4cc(F)ccc43)(C1)C2` (centres unmarked) [Example 27, (3-((5-Fluoro-1H-indazol-1-yl)methyl)bicyclo[1.1.1]pentan-1-yl)(4-fluoro-2-(3-fluorophenyl)pyrrolidin-1-yl)methanone], the IC50 (as a rule, the concentration at which inhibition is half-maximal) in assay [1] stood at 14 nM; in assay [2] (Homo sapiens, U-937, 22 h), 167 nM.
In the same order, the values of `O=C(N1CC(F)CC1c1cccc(F)c1)C12CC(COc3cc(Br)ncn3)(C1)C2` (centres unmarked) [Example 28, (3-(((6-Bromopyrimidin-4-yl)oxy)methyl)bicyclo[1.1.1]pentan-1-yl)(4-fluoro-2-(3-fluorophenyl)pyrrolidin-1-yl)methanone] are 32 nM and 193 nM.
In the same order, the values of `O=C(N1CC(F)CC1c1cccc(F)c1)C12CC(COc3ccccc3)(C1)C2` (centres unmarked) [Example 31, (4-Fluoro-2-(3-fluorophenyl)pyrrolidin-1-yl)(3-(phenoxymethyl)-bicyclo[1.1.1]pentan-1-yl)methanone] are 55 nM and 462 nM.
For `O=C(N1CC(F)CC1c1cccc(F)c1)C12CC(C(F)c3ccccc3)(C1)C2` (centres unmarked) [Example 41, (3-(Fluoro(phenyl)methyl)bicyclo[1.1.1]pentan-1-yl)-(4-fluoro-2-(3-fluorophenyl)pyrrolidin-1-yl)methanone], in that order: 31 nM and 272 nM.
As to `O=C(N1N=CCC1c1cc(F)cc(F)c1)C12CC(C(F)c3cccc(Cl)c3)(C1)C2` (centres unmarked) [Example 42, (3-((3-chlorophenyl)fluoromethyl)bicyclo[1.1.1]pentan-1-yl)(5-(3,5-difluorophenyl)-4,5-dihydro-1H-pyrazol-1-yl)methanone], the IC50 in assay [1] is 31 nM; in assay [2] (Homo sapiens, U-937, 22 h), 51 nM.
Regarding `CC(Oc1cc(Cl)ncn1)C12CC(C(=O)N3CC(F)CC3c3cccc(F)c3)(C1)C2` (centres unmarked) [Example 43, (3-(1-((6-Chloropyrimidin-4-yl)oxy)ethyl)bicyclo[1.1.1]pentan-1-yl)(4-fluoro-2-(3-fluorophenyl)pyrrolidin-1-yl)methanone], the IC50 in assay [1] came to 1700 nM; in assay [2] (Homo sapiens, U-937, 22 h), 4210 nM.
In the case of `CC1=NN(C(=O)C23CC(Cn4cc(C#N)cn4)(C2)C3)C(c2cc(F)cc(F)c2)C1` (centres unmarked) [Example 47, 1-((3-(5-(3,5-difluorophenyl)-3-methyl-4,5-dihydro-1H-pyrazole-1-carbonyl)-bicyclo[1.1.1]pentan-1-yl)methyl)-1H-pyrazole-4-carbonitrile], the IC50 in assay [1] came to 93 nM; in assay [2] (Homo sapiens, U-937, 22 h) it was 1110 nM.
Take `O=C(N1CC(F)CC1c1cccc(F)c1)C12CC(Cn3ncc4ncccc43)(C1)C2` (centres unmarked) [Example 48, (3-((1H-pyrazolo[4,3-b]pyridin-1-yl)methyl)bicyclo[1.1.1]pentan-1-yl)-(4-fluoro-2-(3-fluorophenyl)pyrrolidin-1-yl)methanone]: the IC50 amounted to 186 nM in assay [1] and 1300 nM in assay [2] (Homo sapiens, U-937, 22 h).
Take `Cc1cnc(C2CC=NN2C(=O)C23CC(Cn4ncc5cc(C#N)ccc54)(C2)C3)cn1` (centres unmarked) [Example 49, 1-((3-(5-(5-Methylpyrazin-2-yl)-4,5-dihydro-1H-pyrazole-1-carbonyl)-bicyclo[1.1.1]pentan-1-yl)methyl)-1H-indazole-5-carbonitrile]: the IC50 in assay [1] worked out at 22 nM; in assay [2] (Homo sapiens, U-937, 22 h), 67 nM.
For `Cc1cncc(C2CC=NN2C(=O)C23CC(Cn4ncc5cc(C#N)ccc54)(C2)C3)n1` (centres unmarked) [Example 50, 1-((3-(5-(6-methylpyrazin-2-yl)-4,5-dihydro-1H-pyrazole-1-carbonyl)bicyclo[1.1.1]pentan-1-yl)methyl)-1H-indazole-5-carbonitrile], in that order: 16 nM and 36 nM.
As for `N#Cc1ccc2c(cnn2CC23CC(C(=O)N4N=CCC4c4cnccn4)(C2)C3)c1` (centres unmarked) [Example 51, 1-((3-(5-(pyrazin-2-yl)-4,5-dihydro-1H-pyrazole-1-carbonyl)bicyclo[1.1.1]pentan-1-yl)methyl)-1H-indazole-5-carbonitrile], the IC50 came to 22 nM in assay [1] and 40 nM in assay [2] (Homo sapiens, U-937, 22 h).
As to `N#Cc1ccc2c(cnn2CC23CC(C(=O)N4N=CCC4c4ccccc4)(C2)C3)c1` (centres unmarked) [Example 52, 1-((3-(5-phenyl-4,5-dihydro-1H-pyrazole-1-carbonyl)-bicyclo[1.1.1]pentan-1-yl)methyl)-1H-indazole-5-carbonitrile], the IC50 came out at 24 nM in assay [1] and 16 nM in assay [2] (Homo sapiens, U-937, 22 h).
In the case of `NC(=O)c1cn(CC23CC(C(=O)N4N=CCC4c4cc(F)cc(F)c4)(C2)C3)nn1` (centres unmarked) [Example 54, 1-((3-(5-(3,5-difluorophenyl)-4,5-dihydro-1H-pyrazole-1-carbonyl)-bicyclo[1.1.1]pentan-1-yl)methyl)-1H-1,2,3-triazole-4-carboxamide], the IC50 in assay [1] amounted to 409 nM; in assay [2] (Homo sapiens, U-937, 22 h), 2640 nM.
For `NC(=O)c1cnnn1CC12CC(C(=O)N3N=CCC3c3cc(F)cc(F)c3)(C1)C2` (centres unmarked) [Example 55, 1-((3-(5-(3,5-difluorophenyl)-4,5-dihydro-1H-pyrazole-1-carbonyl)-bicyclo[1.1.1]pentan-1-yl)methyl)-1H-1,2,3-triazole-5-carboxamide], in that order: 896 nM and 8930 nM.
In the same order, the values of `N#Cc1ccc2cn(CC34CC(C(=O)N5N=CCC5c5cc(F)cc(F)c5)(C3)C4)nc2c1` (centres unmarked) [Example 56, 2-((3-(5-(3,5-difluorophenyl)-4,5-dihydro-1H-pyrazole-1-carbonyl)bicyclo[1.1.1]-pentan-1-yl)methyl)-2H-indazole-6-carbonitrile] are 19 nM and 63 nM.
With `COc1ccc2cn(CC34CC(C(=O)N5N=CCC5c5cc(F)cc(F)c5)(C3)C4)nc2c1` (centres unmarked) [Example 57, (5-(3,5-difluorophenyl)-4,5-dihydro-1H-pyrazol-1-yl)(3-((6-methoxy-2H-indazol-2-yl)methyl)bicyclo[1.1.1]-pentan-1-yl)methanone], the IC50 in assay [1] stood at 32 nM; in assay [2] (Homo sapiens, U-937, 22 h) it was 110 nM.
In the same order, the values of `O=C(N1N=CCC1c1cc(F)cc(F)c1)C12CC(Cn3cc4cccc(Cl)c4n3)(C1)C2` (centres unmarked) [Example 58, (3-((7-chloro-2H-indazol-2-yl)methyl)bicyclo[1.1.1]-pentan-1-yl)(5-(3,5-difluoro-phenyl)-4,5-dihydro-1H-pyrazol-1-yl)methanone] are 34 nM and 160 nM.
Take `O=C(N1N=CCC1c1cc(F)cc(F)c1)C12CC(Cn3cc4ncccc4n3)(C1)C2` (centres unmarked) [Example 59, (3-((2H-pyrazolo[4,3-b]-pyridin-2-yl)methyl)bicyclo-[1.1.1]pentan-1-yl)(5-(3,5-difluorophenyl)-4,5-dihydro-1H-pyrazol-1-yl)methanone]: the IC50 in assay [1] is 43 nM; in assay [2] (Homo sapiens, U-937, 22 h) it was 226 nM.
For `N#Cc1cccc2nn(CC34CC(C(=O)N5N=CCC5c5cc(F)cc(F)c5)(C3)C4)cc12` (centres unmarked) [Example 60, 2-((3-(5-(3,5-difluorophenyl)-4,5-dihydro-1H-pyrazole-1-carbonyl)bicyclo[1.1.1]-pentan-1-yl)methyl)-2H-indazole-4-carbonitrile], in that order: 44 nM and 178 nM.
For `N#Cc1ccc2nn(CC34CC(C(=O)N5N=CCC5c5cc(F)cc(F)c5)(C3)C4)cc2c1` (centres unmarked) [Example 61, 2-((3-(5-(3,5-difluorophenyl)-4,5-dihydro-1H-pyrazole-1-carbonyl)bicyclo[1.1.1]-pentan-1-yl)methyl)-2H-indazole-5-carbonitrile], in that order: 45 nM and 211 nM.
For `O=C(N1N=CCC1c1cc(F)cc(F)c1)C12CC(Cn3cc4ccc(F)cc4n3)(C1)C2` (centres unmarked) [Example 62, (5-(3,5-difluorophenyl)-4,5-dihydro-1H-pyrazol-1-yl)(3-((6-fluoro-2H-indazol-2-yl)methyl)bicyclo[1.1.1]-pentan-1-yl)methanone], in that order: 46 nM and 133 nM.
For the molecule `N#Cc1ccc2c(cnn2CC23CC(C(=O)N4N=CCC4c4cc(F)cc(F)c4)(C2)C3)c1` (centres unmarked) [Example 64, 1-((3-(5-(3,5-difluorophenyl)-4,5-dihydro-1H-pyrazole-1-carbonyl)bicyclo[1.1.1]-pentan-1-yl)methyl)-1H-indazole-5-carbonitrile], the IC50 in assay [1] was determined as 10 nM; in assay [2] (Homo sapiens, U-937, 22 h), 7 nM.
In the case of `O=C(N1N=CCC1c1cc(F)cc(F)c1)C12CC(Cn3ncc4ncccc43)(C1)C2` (centres unmarked) [Example 65, (3-((1H-pyrazolo[4,3-b]-pyridin-1-yl)methyl)bicyclo-[1.1.1]pentan-1-yl)(5-(3,5-difluorophenyl)-4,5-dihydro-1H-pyrazol-1-yl)methanone], the IC50 in assay [1] was found to be 11 nM; in assay [2] (22 h) it was 44 nM.
On to `N#Cc1cccc2c1cnn2CC12CC(C(=O)N3N=CCC3c3cc(F)cc(F)c3)(C1)C2` (centres unmarked) [Example 67, 1-((3-(5-(3,5-difluorophenyl)-4,5-dihydro-1H-pyrazole-1-carbonyl)bicyclo[1.1.1]-pentan-1-yl)methyl)-1H-indazole-4-carbonitrile], for which the IC50 in assay [1] is 19 nM; in assay [2] (Homo sapiens, U-937, 22 h), 54 nM.
Regarding `O=C(N1N=CCC1c1cc(F)cc(F)c1)C12CC(Cn3ncc4cncc(Cl)c43)(C1)C2` (centres unmarked) [Example 68, (3-((7-chloro-1H-pyrazolo-[4,3-c]pyridin-1-yl)methyl)-bicyclo[1.1.1]pentan-1-yl)(5-(3,5-difluorophenyl)-4,5-dihydro-1H-pyrazol-1-yl)methanone], the IC50 in assay [1] amounted to 20 nM; in assay [2] (Homo sapiens, U-937, 22 h) it was 34 nM.

(Values after patent US20250214942A1, “INHIBITORS OF RECEPTOR INTERACTING PROTEIN KINASE I FOR THE TREATMENT OF DISEASE” (Board of Regents, The University of Texas System, priority 2019, published 2025).)
